Key:
[1] = tested on: HBV virus; assay: HBV infection of HepG2-NTCP cells, Southern blot analysis; format: cell-based, hepatitis B virus (HBV); conditions: 20 μM
Method: (§1) Specifically, the HepG2-NTCP cell line was cultured on a 6-well plate, incubation was performed overnight, HBV inhibitors were treated at a concentration of 20 μM, and the positive control Myrcludex-B (MyrB) was treated at a concentration of 200 nM, followed by culture for 24 hours. After HBV infection into the cells to make HBV 3000 genome equivalent per ml/cell (Geq/cell), the cell culture medium was replaced (medium changing, MC) a day after the viral infection to remove the virus unattached to cell membranes. In order to measure an amount of virus that entered the cell, medium changing (MC) was performed once more 4 days after viral infection. 2 days after replacement, HBeAg ELISA analysis was performed using a supernatant, and Southern blot analysis was performed with cell pellets.
First, the cell pellets were pipetted with 100 μl of HEPES lysis buffer (10 mM HEPES, 100 mM NaCl, 1 mM EDTA, 1% NP-40), placed on ice for 20 minutes, and then centrifuged with a centrifuge under the conditions at 4° C. and 13000 rpm. After transferring the supernatant only to the new microtube, 4.5 μl of nuclease buffer I (10 mM CaCl2), 12 mM MgCl2, DNase 10 units) was added to carry out a reaction at 37° C. for 2 hours, and 40 μl of 26% PEG solution was added, followed by a reaction on ice for 1 hour. After centrifuging with the centrifuge at 4° C. and 13000 rpm for 30 minutes, and the supernatant was removed cleanly. After releasing the pellets with 100 μl of nuclease buffer II (10 mM Tris, 8 mM CaCl2), 6 mM MgCl2), 287.5 μl of 0.5% SDS buffer (25 mM Tris, 10 mM EDTA, 0.5% SDS, 100 mM NaCl) was added, and 12.5 μl of 20 mg/ml proteinase K was added, followed by a reaction at 37° C. for 2 hours. 400 μl of phenol-chloroform-isoamyl alcohol was added, centrifugation was performed at room temperature at 13000 rpm after voltexing, the supernatant was transferred to a new tube, 40 μl of 3 M NaOAc was added, and 800 μl of 100% ethanol was added for inverting, followed by a reaction overnight at −20° C. After performing centrifugation at 4° C. and 13000 rpm for 30 minutes, 800 μl of 70% ethanol was added and mixed to the pellet obtained by removing the supernatant, centrifugation was performed at 4° C. and 13000 rpm for 10 minutes, and then the supernatant was discarded. The ethanol was dried for 5 minutes to leave only the HBV DNA pellets, and then the pellets were dissolved again in 15 μl of TE buffer (10 mM Tris, 1 mM EDTA). HBV DNA samples were loaded in 1% agarose gel, and electrophoresis was performed. It was then immersed in denature buffer (0.25 N NaOH, 1 M NaCl) for 30 minutes to denature dsDNA of HBV into ssDNA. The DNA in the gel was transferred to a Nylon membrane using a transfer buffer (0.4 M NaOH), the membrane was soaked with a 2×SSC buffer (sigma, cat #85639) for neutralization, followed by drying in air. The membrane was immersed in a church buffer (10% BSA, 0.5 M EDTA, 1 M NaPi, 20% SDS), and the radioisotopes were hybridized using a Mega prime kit (GE healthcare, RPN1607). After washing three times with washing buffer (2×SSC, 0.1% SDS), measurement was performed using radioisotope measurement equipment, and a relative replication rate (%) to the negative control group (Mock) was calculated and shown.

[2] = target: T1, NTCP (Na+ taurocholate cotransporting peptide), HepG2-hNTCP-C4 cell line (Homo sapiens, UniProt Q14973); assay: Inhibition of binding between FITC-labelled PreS1 and NTCP expressing cell line, flow cytometry; conditions: for relative fluorescence intensity compared to Comparative Example 1 (LCA): compound 50 µM, 20 nM PreS1, 4° C., 2 hours, lower = more inhibited binding
T1 construct: expressed in transfected cells; host or cells: HepG2-hNTCP-C4 (HepG2 cells expressing human NTCP)
T1 sequence (Q14973 1-349): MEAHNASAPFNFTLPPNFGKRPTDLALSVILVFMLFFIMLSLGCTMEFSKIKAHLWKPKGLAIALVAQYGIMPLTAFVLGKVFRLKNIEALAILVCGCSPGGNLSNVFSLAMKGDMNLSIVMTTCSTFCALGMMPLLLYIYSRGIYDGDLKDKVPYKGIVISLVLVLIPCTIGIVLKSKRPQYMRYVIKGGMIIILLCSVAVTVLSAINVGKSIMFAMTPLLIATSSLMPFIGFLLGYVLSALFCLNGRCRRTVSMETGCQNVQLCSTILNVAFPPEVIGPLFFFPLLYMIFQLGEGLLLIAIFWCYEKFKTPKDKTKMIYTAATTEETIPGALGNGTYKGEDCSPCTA
Method: HepG2-hNTCP-C4 cell line, a cell line expressing NTCP, was seeded in a 6 well plate at a density of 2×10^5/well and incubated at 4° C. for 30 minutes when the confluency reached 80% after overnight incubation for 2 days. Thereafter, 20 nM PreS1 (Myr-GTNL […]-Lys(FITC) (SEQ ID NO: 1)) and the compounds in Example 1, Examples 38 to 56 or the compound in Comparative Example 1 were treated by diluting in culture media at 4° C. at a concentration of 50 µM respectively, and the media was suctioned after 2 hours, followed by washing 3 times with 4° C. PBS. In order to take the cells off from the plate, 500 μl of 0.5 mM EDTA PBS solution was treated, and then incubation was performed at 37° C. for 15 minutes to check whether the cells fell off through an optical microscope. After taking off the cells by pipetting, the cells were collected in a 1.5 ml tube and centrifuged (4000 rpm, 4° C., 3 min). After suctioning the supernatant, the pellet was washed 3 times with 4° C. PBS, and then green fluorescence was measured via flow cytometry. In this case, taurocholic acid (TCA), a compound known as a substrate of NTCP to reduce the entry of HBV or HDV, was used as a positive control group.
In the graph at the top of FIG. 1, black (1) and red (2) indicate a negative control group with no treatment and an HBV-induced group (HBV preS1) solely treated with PreS1, respectively. Blue (HBV preS1+HBV entry inhibitor) (3) is the fluorescence value for each of Examples or Comparative Examples, evaluated that the closer to the negative control group, the more inhibited the binding between PreS1 and the NTCP cell line.
The experimental method was the same as in the Experimental Example 1-1, and 20 nM PreS1 and each compound were treated at 4 concentrations (0.2 μM, 2 μM, 10 μM, 50 μM).
With an expectation that there is a structure-activity relationship among compounds composed of bile acid and amino acids, for each of bile acids in Comparative Example 1 (lithocholic acid, LCA), Comparative Example 2 (ursodeoxycholic acid, UDCA), Comparative Example 3 (cholic acid, CA), Comparative Example 4 (hyodeoxycholic acid, HDCA), Comparative Example 5 (deoxycholic acid, DCA), and Comparative Example 6 (chenodeoxycholic acid, CDCA), an evaluation experiment was conducted on an ability to inhibit the binding between PreS1 and NTCP expressing cell lines, and also for Examples 1 (LCA-Ile) and Example 44 (LCA-Val) as well as the compounds in Example 2 (UDCA-Ile), Example 3 (UDCA-Val), Example 6 (CA-Ile), Example 7 (CA-Val), Example 8 (HDCA-Ile), Example 9 (HDCA-Val), Example 10 (DCA-Ile), Example 11 (DCA-Val), Example 14 (CDCA-Ile), and Example 15 (CDCA-Val) in which bile acid parts (lithocholic acid) of Example 1 (LCA-Ile) and Example 44 (LCA-Val) were substituted with other types of bile acids in Comparative Examples 2 to 6, an evaluation experiment was conducted on an ability to inhibit the binding between PreS1 and NTCP expressing cell lines. The experimental method was the same as in the Experimental Example 1-1, and 18 compounds in the Comparative Examples 1 to 6, Examples 1 to 3, Examples 6 to 11, Examples 14 to 15, and Example 44 were treated at a concentration of 50 µM along with 20 nM PreS1.
In FIG. 9, an evaluation experiment was conducted to check a degree of inhibiting the binding between PreS1 and NTCP expressing cell lines for compounds in Examples 4 to 5, Examples 12 to 13, Examples 16 to 17, and Comparative Examples 2 (ursodeoxycholic acid, UDCA), Comparative Examples 5 (deoxycholic acid, DCA), and Comparative Examples 6 (chenodeoxycholic acid, CDCA) according to the present disclosure. The experimental method was the same as the Experimental Example 1-1.
In the Experimental Examples 1-4, it was determined whether there is additionally concentration dependence for Example 4 (UDCA-Trp), a compound with good inhibitory ability. […]

[3] = tested on: HBV virus; assay: HBV infection of HepG2-NTCP cells, HBeAg ELISA analysis; format: cell-based, hepatitis B virus (HBV); conditions: 20 μM, O.D. 450 nm
Method: as §1
HBeAg ELISA analysis was performed using an HBeAg ELISA kit (sanbio, Wantai HBeAg ELISA, cat #WB-2496) for the supernatant obtained by the method in Experimental Example 4-1.
First, a negative control group (Mock), positive control group (MyrB), and samples according to the present disclosure were loaded, by 50 μl each to be triplicate, onto a 96-well plate coated with capture Ab. In this case, Example 1 (LCA-ILE), Example 44 (LCA-Val), Example 52 (LCA-Tyr), Example 51 (LCA-Ser), Example 55 (LCA-Glu), Example 2 (UDCA-Ile), Example 3 (UDCA-Val), Example 25 (LCA-Val-Trp), Example 10 (DCA-Ile), Comparative Example 1 (LCA), and Comparative Example 2 (UDCA) were used as the sample.
The HRP-conjugated detection antibody was loaded into each well by 50 μl, followed by a reaction at 37° C. for 30 minutes. Washing buffer (1×PBS, 0.5% Tween20) was added by 200 μl, and washing was performed 5 times. 50 μl of chromogen solution A and 50 μl of chromogen solution B were added to each well, and a reaction was carried out in the darkness at 37° C. for 15 minutes. The stop solution was added to each well by 50 μl each to stop the reaction, and the amount of HBeAg was measured by measuring the absorbance (optical density, O.D.) level in the 450 nm wavelength band.

| Compound | amount of HBeAg DNA detected compared to the negative control group (Mock) [1] | relative fluorescence intensity compared to Comparative Example 1 (LCA) [2] | HBeAg absorbance level relative to the negative control group (Mock) [3] | effect of inhibiting the binding between PreS1 and NTCP expressing cell lines by treatment concentration ([2]; 0.2 μM, 2 μM, 10 μM, 50 μM, 20 nM PreS1) |
| --- | --- | --- | --- | --- |
| CC(C)[C@H](NC(=O)CC[C@@H](C)[C@H]1CC[C@H]2[C@@H]3CC[C@@H]4C[C@H](O)CC[C@]4(C)[C@H]3CC[C@]12C)C(=O)N[C@@H](Cc1c[nH]c2ccccc12)C(=O)O [Example 25, (S)-2-((S)-2-((R)-4-((3R,5R,8R,9S,10S,13R,14S,17R)-3-hydroxy-10,13-dimethyl-hexadecahydro-1H-cyclopenta[a]phenanthren-17-yl)pentanamido)-3-methylbutanamido)-3-(1H-indol-3-yl)propanoic acid] | relatively less amount |  |  |  |
| C[C@H](CCC(=O)N[C@@H](CO)C(=O)O)[C@H]1CC[C@H]2[C@@H]3CC[C@@H]4C[C@H](O)CC[C@]4(C)[C@H]3CC[C@]12C [Example 51, (S)-3-hydroxy-2-((R)-4-((3R,5R,8R,9S,10S,13R,14S,17R)-3-hydroxy-10,13-dimethyl-hexadecahydro-1H-cyclopenta[a]phenanthren-17-yl)pentanamido)propanoic acid] |  | low | relatively lower |  |
| C[C@H](CCC(=O)N[C@@H](Cc1ccc(O)cc1)C(=O)O)[C@H]1CC[C@H]2[C@@H]3CC[C@@H]4C[C@H](O)CC[C@]4(C)[C@H]3CC[C@]12C [Example 52, (S)-2-((R)-4-((3R,5R,8R,9S,10S,13R,14S,17R)-3-hydroxy-10,13-dimethyl-hexadecahydro-1H-cyclopenta[a]phenanthren-17-yl)pentanamido)-3-(4-hydroxyphenyl)propanoic acid] | relatively less amount | low and lower |  | concentration dependent |
| C[C@H](CCC(=O)N[C@@H](CCC(=O)O)C(=O)O)[C@H]1CC[C@H]2[C@@H]3CC[C@@H]4C[C@H](O)CC[C@]4(C)[C@H]3CC[C@]12C [Example 55, (S)-2-((R)-4-((3R,5R,8R,9S,10S,13R,14S,17R)-3-hydroxy-10,13-dimethyl-hexadecahydro-1H-cyclopenta[a]phenanthren-17-yl)pentanamido)pentanedioic acid] | relatively less amount |  |  |  |

Reference: patent US20260234180A1, “AMINO ACID DERIVATIVE, PREPARATION METHOD THEREFOR, AND PHARMACEUTICAL COMPOSITION FOR TREATING HEPATITIS, COMPRISING SAME” (priority 2021, published 2026)
